We go through eleven compounds from patent US20140255330A1, “Mixed Sugar Compositions” (THE PROCTER & GAMBLE COMPANY, priority 2013, published 2014).

Data set [1] is described as follows: Visual melting point determination (capillary melting point apparatus). The class given is physicochemical. The settings on record: for Ending MP: transparent gel to liquid. The source says:
A Kimax −51 capillary tube (size 1.5−1.8×90 mm) was charged with the mixed C12-NMG:C12-NMX samples described in Example 22 to afford ˜½ inch sample bed. A Tomas Hoover Capillary Melting Point Apparatus was used to determine melting points visually. The Starting Melting Point (MP) is defined as the temperature (° C.) when the initial white opaque solid has completed the transition to a transparent gel. The Ending Melting Point (MP) is defined as the temperature (° C.) when the transparent gel transitions to liquid.
The procedure of Example 27 was followed using the mixed C12-NMG:C12-NMGly samples described in Example 23.

Data set [2] in a line: Thermal transition determination via DSC, -40° C. program (procedure of Example 30). The class given is physicochemical. The settings on record: for T Intercept-2 / T Peak Max-2: peak 2. The method, then: (§1) A Tzero Hermetic pan & lid was charged with ˜10-15 mg mixed material sample described in Examples 22. A Direct Scanning Coulometer, DSC Q2000 V24.9 was used to determine thermal transitions. The following temperature profile was used to obtain the data: ambient temperature cooled to −40° C. at 20° C./min, −40° C. to 160° C. at 20° C./min. The T intercept is defined as the temperature where the extrapolated slope of the initial curve of a peak intercepts the interpolated baseline of that peak. T Peak Max is defined as the temperature at the peak (inflection point) of a given curve.
Temperature program: Ambient temperature to −40° C. at 20° C./min, −40° C. to 140° C. at 20° C./min.
(§2) The procedure of Example 30 was followed using the mixed C12-ene-NMG:C12-ene-NMX samples described in Example 24.
The procedure of Example 30 was followed using the mixed C15-ene-NMG:C15-ene-NMX samples described in Example 25. […]
The procedure of Example 30 was followed using the mixed NMHG:NMHX samples described in Example 46.
Background: DSC measures the heat that a sample takes up or gives off during a temperature scan.

The conditions of data set [3]: literature values; cited from earlier work.
Data set [4] in a line: Physical consistency of samples noted at ambient temperature. The class given is physicochemical. The settings on record: when placed into DSC pan.
From the text: as §2
The procedure of Example 30 was followed using the mixed C15-ene-NMG:C15-ene-NMX samples described in Example 25.
The procedure of Example 30 was followed using the mixed CCO-NMG:CCO-NMX samples described in Example 37.

The nature of data set [5]: Thermal transition determination via DSC, -20° C. to 160° C. at 20° C./min. The class given is physicochemical. The settings on record: C12-NMG:C12-NMX; for T Intercept / T Peak Max: peak 1; for T Intercept-3 / T Peak Max-3: peak 3. As to the method: as §1, with “transitions. A DSC is able to detect phase transitions within a material that might not be visible to the naked eye.” for “transitions.”, “−20°” for “−40°”
Temperature program: Ambient temperature to −20° C. at 20° C./min, −20° C. to 160° C. at 20° C./min.

Data set [6] in a line: Krafft Point analysis, Phase Technology NK60-KPA Analyzer (Diffusive Light Scattering). The class given is physicochemical. The settings on record: 1 wt % solutions of C12-NMG and C12-NMX in deionized water mixed by volume.
Method: Krafft Point analysis was performed on a Phase Technology® NK60-KPA Analyzer that used a Diffusive Light Scattering (DLS) detection method. A 1 wt % solution was prepared in deionized water and 0.150 ml of this solution was added to the sample cell of the instrument at room temperature (20-25° C.). The following heating and cooling cycle was executed on the sample. Samples were warmed to 40° C. at a ramp rate of 5° C./min and held for 30 seconds. Next, Samples were cooled to −20° C. at a rate of −10° C./min and held for 60 seconds. Samples were then warmed to 0° C. at a rate of 5° C./min, held for 0 seconds, warmed to 30° C. at a rate of 2° C./min, held for 0 seconds and lastly warmed to 40° C. at a rate of 5° C./min.
Data was recorded as crystal count (y-axis) versus temperature (x-axis). […] During final warming cycle, when crystal count returned to original baseline, the temperature at that point was recorded as the Krafft point.
(§3) 1 wt % solutions of each of the materials in the table below were tested. […] A volume of 0.150 mL of this mixture was then analyzed via the Phase Technology® NK60-KPA Analyzer.
as §3
[7] abbreviates: C12-NMG:C12-NMGly blends by weight.
Where [8] appears, read: C12-ene-NMG:C12-ene-NMX, peak 1, ** = No peak was observed.
[9] abbreviates: C15-ene-NMG:C15-ene-NMX, peak 1, ** = No peak was observed.
[10] abbreviates: C12-NMG:C12-NMX blends by weight.
The mark [11] stands for this setting: C12-NMG:C12-NMX blends by weight, white opaque solid to transparent gel.

For `CCCCCCCCCCCC(=O)N(C)CC(O)CO` (centres unmarked) [Example C12-NMGly, N-Dodecanoyl-(3-methylamino-1,2-propanediol)], in data set [1] (setting [7]), the “Ending PM” value worked out at 52.8 °C and the “Starting MP” value came out at 46.3 °C. In addition, in data set [2] (C12-NMG:C12-NMGly, peak 1), the “T Intercept” value worked out at 44.5 °C and the “T Peak Max” value turned out to be 49.6 °C. Further, in data set [2] (C12-NMG:C12-NMGly), the “T Intercept-2” value worked out at 117.2 °C. Further, the “initial melting point (Zhu et al)” value in data set [3] was 40-40.5 °C.

In the case of `CCC=CCCCCCCCC(=O)N(C)C[C@H](O)[C@@H](O)[C@H](O)[C@H](O)CO` [Example C12-ene-NMG, N-(9-Dodecenoyl)-N-Methylglucamine], in data set [2] (setting [8]), the “T Intercept” value came to 67.0 °C and the “T Peak Max” value is 78.7 °C. For the same compound, in data set [2] (C12-ene-NMG:C12-ene-NMX), the “T Intercept-2” value was 106.1 °C and the “T Peak Max-2” value was found to be 108.5 °C. The “physical consistency of sample” value in data set [4] is listed as “powders”.

Regarding `CCCCCC=CCCCCCCCC(=O)N(C)CC(O)C(O)C(O)CO` (centres unmarked) [Example C15-ene-NMX, N-(9-Pentadecenoyl)-N-Methyl-Xylamine], in data set [2] (setting [9]), the “T Intercept” value was 27.5 °C and the “T Peak Max” value was 38.8 °C. Also, in data set [2] (C15-ene-NMG:C15-ene-NMX), the “T Intercept-2” value was 113.0 °C and the “T Peak Max-2” value turned out to be 115.5 °C. The “physical consistency of sample” value in data set [4] is “waxy in nature”.

In the case of `CCCCCCN(C)C[C@H](O)[C@@H](O)[C@H](O)CO` [NMHX, N-Methyl Hexyl Xylamine], in data set [2] (NMHG:NMHX blends by weight), the “T Intercept” value came out at 48.6 °C and the “T Peak Max” value came to 52.3 °C.

`CCCCCCCCCCCC(=O)N(C)CC(O)C(O)C(O)CO` (centres unmarked) [Example C12-NMX, N-Dodecanoyl-N-Methylxylamine]: the “Ending MP” value in data set [1] (setting [10]) came out at 96.6 °C. The “Starting MP” value in data set [1] (setting [11]) came out at 76 °C. In data set [5], the “T Intercept” value turned out to be 69.7 °C, the “T Peak Max” value stood at 77.0 °C, the “T Intercept-3” value was 95.6 °C and the “T Peak Max-3” value was 97.2 °C. Also, the “initial melting point (Zhu et al)” value in data set [3] is 74-75 °C.

Consider N-Methylglucamine [Example 1], for which the “Krafft Point” value in data set [6] worked out at 20 °C.

Turning to `CCCCCC=CCCCCCCCC(=O)N(C)C[C@H](O)[C@@H](O)[C@H](O)[C@H](O)CO` [Example C15-ene-NMG, N-(9-Pentadecenoyl)-N-Methylglucamine], in data set [2] (setting [9]), the “T Intercept” value came out at 64.1 °C and the “T Peak Max” value turned out to be 77.9 °C. Further, in data set [2] (C15-ene-NMG:C15-ene-NMX), the “T Intercept-2” value was 144.6 °C and the “T Peak Max-2” value amounted to 146.2 °C.

As for `CCCCCCCCCCCC(=O)N(C)C[C@H](O)[C@@H](O)[C@H](O)[C@H](O)CO` [Solution 13, N-Dodecanoyl-N-Methylglucamine], the “Krafft Point” value in data set [6] worked out at 37 °C.

On to `CCCCCCCCCCCC(=O)N(C)C[C@H](O)[C@@H](O)[C@H](O)[C@H](O)CO` [Example C12-NMG, N-Dodecanoyl-N-Methylglucamine], for which, in data set [1] (setting [7]), the “Ending PM” value is 127.2 °C and the “Starting MP” value amounted to 96.8 °C. The “Ending MP” value in data set [1] (setting [10]) was found to be 129.8 °C. Further, the “Starting MP” value in data set [1] (setting [11]) was determined as 96 °C. For the same compound, in data set [5], the “T Intercept” value was determined as 84.1 °C, the “T Peak Max” value was determined as 94.7 °C, the “T Intercept-3” value stood at 136.7 °C and the “T Peak Max-3” value came to 137.9 °C. Besides, in data set [2] (C12-NMG:C12-NMGly, peak 1), the “T Intercept” value was 82.0 °C and the “T Peak Max” value turned out to be 94.7 °C. In addition, in data set [2] (C12-NMG:C12-NMGly), the “T Intercept-2” value came to 137.0 °C. Also, the “initial melting point (Zhu et al)” value in data set [3] is 90.5-91.5 °C.

In the case of `CCC=CCCCCCCCC(=O)N(C)CC(O)C(O)C(O)CO` (centres unmarked) [Example C12-ene-NMX, N-(9-Dodecenoyl)-N-Methylxylamine], in data set [2] (setting [8]), the “T Intercept” value is 26.0 °C and the “T Peak Max” value came to 28.6 °C. In addition, in data set [2] (C12-ene-NMG:C12-ene-NMX), the “T Intercept-2” value was 86.2 °C and the “T Peak Max-2” value was 89.5 °C. Besides, the “physical consistency of sample” value in data set [4] was “waxy in nature”.

Regarding N-Methyl Hexyl Glucamine [NMHG], in data set [2] (NMHG:NMHX blends by weight), the “T Intercept” value is 73.8 °C and the “T Peak Max” value turned out to be 79.0 °C.
